The values below come from patent US9399646B2 (Genentech, Inc., priority 2010, dated 2016).

A value given as a limit tells only on which side of the number the result lay.

One test deals with MCF-7 cells. Description: Breast cancer cell viability assay (CellTiter-Glo, 5 days). It counts as cell-based. The conditions noted are these: 5 days' compound exposure; for IC50: Homo sapiens, MCF7, 120 h. The gist of the method:
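MCF-7 cells, 320 per well in RPMI with 10% FBS and 20 mM HEPES, adhered overnight, then exposed 5 days to an eleven-point semilog dilution (final 0.3-0.000003 μM). CellTiter-Glo luminescence read; % viability = (sample − cell-free background)/(untreated − background) × 100.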
Background: In ATP-based viability assays light output follows the ATP content of the culture.

The target of a further test is T1, ER-α in MCF-7 cells (Homo sapiens, UniProt P03372).
T1 sequence (P03372 1-595): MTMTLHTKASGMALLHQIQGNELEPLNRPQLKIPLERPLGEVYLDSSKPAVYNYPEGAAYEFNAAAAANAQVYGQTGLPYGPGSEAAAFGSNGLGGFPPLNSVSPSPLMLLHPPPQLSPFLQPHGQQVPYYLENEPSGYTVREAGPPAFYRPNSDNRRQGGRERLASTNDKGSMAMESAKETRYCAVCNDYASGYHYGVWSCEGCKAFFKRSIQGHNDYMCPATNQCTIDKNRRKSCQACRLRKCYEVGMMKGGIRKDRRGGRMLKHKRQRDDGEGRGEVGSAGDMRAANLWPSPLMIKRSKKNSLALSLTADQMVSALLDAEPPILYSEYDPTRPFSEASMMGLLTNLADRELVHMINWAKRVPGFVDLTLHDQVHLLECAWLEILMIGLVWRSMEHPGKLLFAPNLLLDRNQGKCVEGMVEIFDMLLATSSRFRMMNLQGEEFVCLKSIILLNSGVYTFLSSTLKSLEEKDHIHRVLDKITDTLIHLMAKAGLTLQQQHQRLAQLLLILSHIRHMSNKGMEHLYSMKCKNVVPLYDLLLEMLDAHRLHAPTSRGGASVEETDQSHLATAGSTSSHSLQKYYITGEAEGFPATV
Description: Breast cancer cell ER-α in cell western assay (SP1). It counts as cell-based. On the set-up: endogenous in cells; host or cells: MCF-7. As to conditions: 4 or 24 hr post compound addition; for Emax: MCF7, SP1 antibody, read-out: ER-α In Cell Western Assay (SP1) Max Response; for DC50: SP1 antibody, read-out: ER-α In Cell Western Assay (SP1) IC50. Put shortly: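 Fixed cells were immunostained with SP1 anti-ER antibody; ER signal (800 nm) was normalized to DRAQ5 DNA signal (700 nm) and expressed as % of untreated cells.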

In the case of `CC/C(=C(/c1ccc(/C=C/C(=O)O)cc1)c1ccc2[nH]ncc2c1)c1ccc(Oc2ccncc2)cc1` [Compound 315, (E)-3-(4-((E)-1-(1H-Indazol-5-yl)-2-(4-(pyridin-4-yloxy)phenyl)but-1-en-1-yl)phenyl)acrylic acid], in the test on MCF-7 cells, the “MCF7 Viability Assay Max Response” value is reported as “++ (++ = a single % value ≧ 40%)” and the IC50 was no more than 100 nM. In addition, at ER-α in MCF-7 cells, the Emax is no less than 40% and the DC50 is no more than 100 nM.
On to `CCOC(=O)/C=C/c1ccc(/C(=C(/CC)c2ccc(F)cc2Cl)c2ccc3c(cnn3C3CCCCO3)c2)cc1` (stereo not drawn) [Compound 193, (E)-Ethyl 3-(4-((E)-2-(2-chloro-4-fluorophenyl)-1-(1-(tetrahydro-2H-pyran-2-yl)-1H-indazol-5-yl)but-1-en-1-yl)phenyl)acrylate], for which, in the test with MCF-7 cells, the “MCF7 Viability Assay Max Response” value is on record as “+ (+ = a single % value < 40%)” and the half-inhibitory concentration (IC50) was no more than 100 nM. Moreover, on ER-α in MCF-7 cells, the Emax was no less than 40% and the DC50 was greater than 100 nM.
As to `CC/C(=C(/c1ccc(/C=C/C(=O)O)cc1)c1ccc2[nH]ncc2c1)c1sccc1C` [Compound 241, (E)-3-(4-((E)-1-(1H-Indazol-5-yl)-2-(3-methylthiophen-2-yl)but-1-en-1-yl)phenyl)acrylic acid], in the test with MCF-7 cells, the “MCF7 Viability Assay Max Response” value is “++ (++ = a single % value ≧ 40%)” and the IC50 was no more than 100 nM. Further, at ER-α in MCF-7 cells, the Emax is no less than 40% and the DC50 was no more than 100 nM.
Take `CC/C(=C(/c1ccc(/C=C/C(=O)O)cc1)c1cccc2[nH]ncc12)c1ccccc1Cl` [Compound 22, (E)-3-(4-((E)-2-(2-Chlorophenyl)-1-(1H-indazol-4-yl)but-1-en-1-yl)phenyl)acrylic acid]: in the test on MCF-7 cells, the “MCF7 Viability Assay Max Response” value was “++ (++ = a single % value ≧ 40%)” and the IC50 is no more than 100 nM. Also, on ER-α in MCF-7 cells, the Emax was no less than 40% and the DC50 was no more than 100 nM.
Take `CC/C(=C(/c1ccc(/C=C/C(=O)O)cc1)c1ccc2[nH]ncc2c1)c1cccc(Oc2ccccc2)c1` [Compound 261, (E)-3-(4-((E)-1-(1H-Indazol-5-yl)-2-(3-phenoxyphenyl)but-1-en-1-yl)phenyl)acrylic acid]: in the test with MCF-7 cells, the “MCF7 Viability Assay Max Response” value is given as “++ (++ = a single % value ≧ 40%)” and the 50% inhibitory concentration (IC50) was no more than 100 nM. Also, on ER-α in MCF-7 cells, the Emax was no less than 40% and the DC50 was no more than 100 nM.
Consider `CC/C(=C(/c1ccc(/C=C/C(=O)O)cc1)c1ccc2[nH]ncc2c1)c1ccc(Oc2ccccc2)cc1` [Compound 263, (E)-3-(4-((E)-1-(1H-Indazol-5-yl)-2-(4-phenoxyphenyl)but-1-en-1-yl)phenyl)acrylic acid], for which, in the test with MCF-7 cells, the “MCF7 Viability Assay Max Response” value is on record as “++ (++ = a single % value ≧ 40%)” and the IC50 was no more than 100 nM. Besides, at ER-α in MCF-7 cells, the Emax was no less than 40% and the DC50 is no more than 100 nM.
In the case of `CC/C(=C(/c1ccc(/C=C/C(=O)NS(=O)(=O)c2ccncc2)cc1)c1ccc2[nH]ncc2c1)c1ccc(F)cc1Cl` [Compound 434, (E)-3-(4-((E)-2-(2-Chloro-4-fluorophenyl)-1-(1H-indazol-5-yl)but-1-en-1-yl)phenyl)-N-(pyridin-4-ylsulfonyl)acrylamide], in the test with MCF-7 cells, the “MCF7 Viability Assay Max Response” value is recorded as “++ (++ = a single % value ≧ 40%)” and the IC50 was no more than 100 nM. Besides, at ER-α in MCF-7 cells, the Emax was no less than 40% and the DC50 was no more than 100 nM.
On to `CC/C(=C(/c1ccc(/C=C/C(=O)O)cc1)c1ccc2c(c1)OCO2)c1ccccc1` [Compound 128, (E)-3-(4-((E)-1-(Benzo[d][1,3]dioxol-5-yl)-2-phenylbut-1-en-1-yl)phenyl)acrylic acid], for which, in the test with MCF-7 cells, the “MCF7 Viability Assay Max Response” value is “++ (++ = a single % value ≧ 40%)” and the IC50 was greater than 100 nM. Also, on ER-α in MCF-7 cells, the Emax is no less than 40% and the DC50 is greater than 100 nM.
Consider `CC/C(=C(/c1ccc(/C=C/C(=O)O)cc1)c1ccc2[nH]ncc2c1)c1cccc(OCC(=O)O)c1` [Compound 347, (E)-3-(4-((E)-2-(3-(Carboxymethoxy)phenyl)-1-(1H-indazol-5-yl)but-1-en-1-yl)phenyl)acrylic acid], for which, in the test with MCF-7 cells, the “MCF7 Viability Assay Max Response” value is “+ (+ = a single % value < 40%)” and the IC50 was greater than 100 nM. Also, at ER-α in MCF-7 cells, the Emax is less than 40% and the DC50 is greater than 100 nM.
For `CC/C(=C(/c1ccc(/C=C/c2nsc(=O)[nH]2)cc1)c1ccc2[nH]ncc2c1)c1ccccc1` [Compound 438, 3-((E)-4-((E)-1-(1H-Indazol-5-yl)-2-phenylbut-1-en-1-yl)styryl)-1,2,4-thiadiazol-5(4H)-one], in the test on MCF-7 cells, the “MCF7 Viability Assay Max Response” value is “++ (++ = a single % value ≧ 40%)” and the IC50 is no more than 100 nM. Besides, at ER-α in MCF-7 cells, the Emax was no less than 40% and the DC50 is no more than 100 nM.
Consider `CC/C(=C(/c1ccc(/C=C/C(=O)O)cc1)c1ccc2[nH]ncc2c1)c1ccc2c(c1)OCO2` [Compound 240, (E)-3-(4-((E)-2-(Benzo[d][1,3]dioxol-5-yl)-1-(1H-indazol-5-yl)but-1-en-1-yl)phenyl)acrylic acid], for which, in the test with MCF-7 cells, the “MCF7 Viability Assay Max Response” value is given as “++ (++ = a single % value ≧ 40%)” and the IC50 was no more than 100 nM. On ER-α in MCF-7 cells, the Emax is no less than 40% and the DC50 was no more than 100 nM.
For `CC/C(=C(/c1ccc(/C=C/C(=O)O)cc1)c1ccc2[nH]ccc2c1)c1ccccc1` [Compound 64, (E)-3-(4-((E)-1-(1H-Indol-5-yl)-2-phenylbut-1-en-1-yl)phenyl)acrylic acid], in the test on MCF-7 cells, the “MCF7 Viability Assay Max Response” value is on record as “++ (++ = a single % value ≧ 40%)” and the IC50 was no more than 100 nM. Further, the Emax on ER-α in MCF-7 cells was no less than 40%.
`CC/C(=C(/c1ccc(/C=C/C(=O)O)cc1)c1ccc2nccn2c1)c1ccc(F)cc1C(F)(F)F` [Compound 233, (E)-3-(4-((E)-2-(4-Fluoro-2-(trifluoromethyl)phenyl)-1-(imidazo[1,2-a]pyridin-6-yl)but-1-en-1-yl)phenyl)acrylic acid]: in the test on MCF-7 cells, the “MCF7 Viability Assay Max Response” value is “++ (++ = a single % value ≧ 40%)” and the concentration for half-maximal inhibition (IC50) is no more than 100 nM. On ER-α in MCF-7 cells, the Emax was no less than 40% and the DC50 was no more than 100 nM.
In the case of `CC/C(=C(/c1ccc(/C=C/C(=O)O)cc1)c1ccc2[nH]ncc2c1)c1cnsc1` [Compound 225, (E)-3-(4-((E)-1-(1H-Indazol-5-yl)-2-(isothiazol-4-yl)but-1-en-1-yl)phenyl)acrylic acid], in the test with MCF-7 cells, the “MCF7 Viability Assay Max Response” value is reported as “++ (++ = a single % value ≧ 40%)” and the half-maximal inhibitory concentration (IC50) was greater than 100 nM. Also, at ER-α in MCF-7 cells, the Emax is no less than 40% and the DC50 was greater than 100 nM.
Turning to `CC/C(=C(/c1ccc(/C=C/C(=O)O)cc1)c1ccc2[nH]ncc2c1)c1cccc(OCc2cccnc2)c1` [Compound 359, (E)-3-(4-((E)-1-(1H-Indazol-5-yl)-2-(3-(pyridin-3-ylmethoxy)phenyl)but-1-en-1-yl)phenyl)acrylic acid], in the test with MCF-7 cells, the “MCF7 Viability Assay Max Response” value was “++ (++ = a single % value ≧ 40%)” and the IC50 was no more than 100 nM. Besides, at ER-α in MCF-7 cells, the Emax is no less than 40% and the DC50 was no more than 100 nM.
For `CC/C(=C(/c1ccc(/C=C/C(=O)O)cc1)c1cccc2[nH]ncc12)c1ccccc1C` [Compound 21, (E)-3-(4-((E)-1-(1H-Indazol-4-yl)-2-(o-tolyl)but-1-en-1-yl)phenyl)acrylic acid], in the test on MCF-7 cells, the “MCF7 Viability Assay Max Response” value was “++ (++ = a single % value ≧ 40%)” and the IC50 is no more than 100 nM. On ER-α in MCF-7 cells, the Emax was no less than 40% and the DC50 is no more than 100 nM.
As to `CC/C(=C(/c1ccc(/C=C/C(=O)O)cc1)c1ccc2[nH]ncc2c1)c1csc(-c2ccccc2)c1` [Compound 271, (E)-3-(4-((E)-1-(1H-Indazol-5-yl)-2-(5-phenylthiophen-3-yl)but-1-en-1-yl)phenyl)acrylic acid], in the test with MCF-7 cells, the “MCF7 Viability Assay Max Response” value was “++ (++ = a single % value ≧ 40%)” and the IC50 is no more than 100 nM. At ER-α in MCF-7 cells, the Emax is no less than 40% and the DC50 is no more than 100 nM.
As to `CC/C(=C(/c1ccc(/C=C/C(=O)O)cc1)c1ccc2[nH]ncc2c1)c1ccnc(OC)c1` [Compound 236, (E)-3-(4-((E)-1-(1H-Indazol-5-yl)-2-(2-methoxypyridin-4-yl)but-1-en-1-yl)phenyl)acrylic acid], in the test with MCF-7 cells, the “MCF7 Viability Assay Max Response” value was “++ (++ = a single % value ≧ 40%)” and the concentration for half-maximal inhibition (IC50) is no more than 100 nM. Moreover, on ER-α in MCF-7 cells, the Emax was no less than 40% and the DC50 is no more than 100 nM.
Turning to `CC/C(=C(/c1ccc(/C=C/C(=O)O)cc1)c1ccc2scnc2c1)c1ccncc1Cl` [Compound 284, (E)-3-(4-((E)-1-(Benzo[d]thiazol-5-yl)-2-(3-chloropyridin-4-yl)but-1-en-1-yl)phenyl)acrylic acid], in the test on MCF-7 cells, the “MCF7 Viability Assay Max Response” value is on record as “++ (++ = a single % value ≧ 40%)” and the 50% inhibitory concentration (IC50) is no more than 100 nM. At ER-α in MCF-7 cells, the Emax is no less than 40% and the DC50 is no more than 100 nM.

As usually defined, the IC50 is the concentration that inhibits the measured activity by half. A high value points to a need for much substance.
